# Entries after “also recorded” stand apart in the source; their conditions may differ.
# Tests used:
# 5-LO [1] = target: T1, 5-LO (Homo sapiens, UniProt P09917); test: 5-LO product biosynthesis assay in stimulated HEK293 cells co-transfected with 5-LO and FLAP; type: cell-based; set-up: expressed in transfected cells; host or cells: HEK293 cells, stably co-transfected (pcDNA3.1 5-LO, pBUDCE4.1 FLAP); conditions: compounds at 1 µM; result in words, compared with zileuton (1) and SAPE (2) at 1 µM; A23187 + arachidonic acid stimulation
# T1 sequence (P09917 1-674): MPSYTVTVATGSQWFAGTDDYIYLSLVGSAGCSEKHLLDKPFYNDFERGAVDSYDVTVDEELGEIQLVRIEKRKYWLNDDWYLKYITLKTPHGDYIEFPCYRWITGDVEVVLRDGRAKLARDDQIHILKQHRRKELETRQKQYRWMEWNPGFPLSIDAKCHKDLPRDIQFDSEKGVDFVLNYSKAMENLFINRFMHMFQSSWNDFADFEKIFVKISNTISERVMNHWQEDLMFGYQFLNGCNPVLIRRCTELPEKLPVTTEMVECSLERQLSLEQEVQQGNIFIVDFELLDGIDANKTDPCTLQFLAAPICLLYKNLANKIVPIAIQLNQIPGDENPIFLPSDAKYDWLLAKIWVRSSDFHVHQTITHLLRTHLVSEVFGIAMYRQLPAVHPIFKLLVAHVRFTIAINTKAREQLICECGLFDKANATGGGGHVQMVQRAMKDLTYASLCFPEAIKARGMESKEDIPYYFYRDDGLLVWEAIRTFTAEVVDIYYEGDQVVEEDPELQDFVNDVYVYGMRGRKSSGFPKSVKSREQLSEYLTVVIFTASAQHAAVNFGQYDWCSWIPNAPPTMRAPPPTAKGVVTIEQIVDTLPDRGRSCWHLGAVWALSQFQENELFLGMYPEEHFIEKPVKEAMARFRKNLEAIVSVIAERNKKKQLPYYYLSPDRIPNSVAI
# Description: All compounds, including known inhibitors zileuton (1) and SAPE (2), were assayed at 1 µM (Figure 1) for inhibition of LTs biosynthesis in stimulated HEK293 cells. These cells are stably transfected with human 5-LO and serves as a highly reproducible model of 5-LO product biosynthesis in which compounds can be preliminarily screened for anti-LTs activity before moving on to more complex systems. […] Esterification of benzo[b]thiophene-2-carboxylic acid to obtain benzyl to phenbutyl analogs (4–7) had no effect on the inhibitory activity of 5-LO. […] Even the addition of a hydroxyl (8) or methoxy (9) at para-position of the phenethyl group has no effect on the activity.
# HEK293 cells were stably co-transfected with a pcDNA3.1 vector expressing 5-LO and a pBUDCE4.1 vector expressing 5-LO activating protein (FLAP) as previously reported. This represents a controlled model for the evaluation of 5-LO inhibition in a cellular system. For cell stimulation of 5-LO products, transfected HEK293 cells were collected following trypsinization, washed and the cell pellet was resuspended in Hank’s balanced salt solution (HBSS) (Lonza, Walkerville, MD) containing 1.6 mM CaCl2 at a concentration of 5 × 10^5 cells/mL. Cells were pre-incubated with each compound dissolved in DMSO at the indicated concentration for 5 min at 37 °C. Cells were then stimulated for 15 min at 37 °C with the addition of 10 µM calcium ionophore A23187 (Sigma-Aldrich, Oakville, ON, Canada) and 10 µM arachidonic acid (Cayman Chemical, Ann Arbor, MI). Stimulation was stopped and processed for RP-HPLC analysis as described previously.
# 5-LO [2] = target: T1, 5-LO; test: 5-LO products biosynthesis assay in human PMNL cells; type: cell-based; set-up: 5-LO is highly expressed in PMNL; endogenous in cells; host or cells: human PMNL from peripheral blood of healthy volunteers; conditions: for Inhibition of the biosynthesis of 5-LO products in human PMNL cells: compounds at 1 µM, result in words, compared with zileuton (1), SAPE (2) or controls, thapsigargin stimulation
# Description: To further probe the inhibitory activity of compounds that approached the inhibitory activity of zileuton (1) and SAPE (2), compounds were selected for further screening in PMNL (Figure 6). 5-LO is highly expressed in PMNL and these cells are important physiological producers of LTB4 [17]. […] The presence of the hydroxyl group in position 4 and the methoxy groups in positions 3 and 5 seems to be an ideal combination for inhibition of 5-LO (Figure 6). These structural changes may influence the availability, cell permeation, or even the stability of inhibitors in PMNL versus HEK293 cells. […] Human PMNL were prepared from peripheral blood of healthy consenting volunteers as described. Human PMNL are an important source of 5-LO metabolites and are relevant primary inflammatory cells for the evaluation of the best compounds identified during the screening process. PMNL were suspended in HBSS containing 1.6 mM CaCl2 (10^7 cells/mL) and pre-incubated with compounds dissolved in DMSO for 5 min at 37 °C in the presence of 0.4 U/mL of adenosine deaminase (Sigma-Aldrich, Oakville, On, Canada). Cells were then stimulated for 15 min at 37 °C with 1 μM thapsigargin (Sigma-Aldrich). Reactions were stopped by the addition of 0.5 mL of cold MeOH:CH3CN (1:1) and 50 ng of PGB2 as internal standard and samples were stored at -20 °C until processing for RP-HPLC analysis as indicated above.
# [3] = Free radical scavenging activity assay (DPPH); conditions: DPPH stable radical, 30 min, absorbance 517 nm; read-out: Free radical scavenging activity IC50 (µM) [SEM]
# Description: A mechanism by which 5-LO activity can be inhibited is through reductive inhibition of the ferric non-heme iron of the enzyme. Interactions with stable free radicals provides an evaluation of the reducing ability of the test compounds. Radical scavenging activities of compounds tested in stimulated PMNL were assayed using 2,2-Diphenyl-1-picrylhydrazyl (DPPH) as a stable radical and are expressed as IC50 concentrations in Table 1.
# The free radical scavenging activity of test compounds was measured as previously described using 2,2-diphenyl-1-picrylhydrazyl (DPPH) as a stable radical with slight modifications. DPPH (200 µL) in ethanol (250 µM) was mixed with 200 µL of the test compounds (1, 5, 10, 25, 50, 75, and 100 µg/mL). Each mixture was then shaken vigorously and held in the dark for 30 min at room temperature. The absorbance of DPPH at 517 nm was then measured. The radical scavenging activity was expressed in terms of % inhibition of DPPH absorbance:% Inhibition = (A control − A test)/A control) × 100 where A control is the absorbance of the control (DPPH solution without test compounds) and A test is the absorbance of the test sample (DPPH solution plus compounds). Ascorbic acid was used as a positive control. Data were expressed as mean ± SEM of three independent experiments, each performed in triplicate. IC50 values were calculated from a sigmoidal concentration-response curve-fitting model with a variable slope on GraphPad Prism software.
Structure (SMILES),melting point [°C],Inhibition of the biosynthesis of 5-LO products in stimulated HEK293 cells (5-LO [1]),Inhibition of the biosynthesis of 5-LO products in human PMNL cells (5-LO [2]),IC50 [3] [µM],"IC50 (5-LO [2]; 95% confidence interval: 0.25–0.53 μM, read-out: IC50 for the inhibition of 5-LO product biosynthesis in PMNL) [µM]"
"O=C(OCCc1ccccc1)c1cc2ccccc2s1 [Compound 5, Phenethyl 1-benzothiophene-2-carboxylate]",61 to 62,,,,
"O=C(/C=C/c1ccccc1)c1cc2ccccc2s1 [Compound 11, (E)-1-(1-Benzothiophen-2-yl)-3-phenyl-2-propen-1-one]",118 to 120,less active than SAPE (2); also recorded: non-significantly different than Zileuton (1),,,
"O=C(/C=C/c1ccccc1O)c1cc2ccccc2s1 [Compound 14, (E)-1-(1-Benzothiophen-2-yl)-3-(o-hydroxyphenyl)-2-propen-1-one]",178 to 180,non-significantly different than Zileuton (1),neither compound showed significant inhibition compared to controls,31.8,
O=C(/C=C/c1ccc(O)cc1)c1cc2ccccc2s1 [Compound 16],,non-significantly different than Zileuton (1),neither compound showed significant inhibition compared to controls,68.9,
COc1ccc(/C=C/C(=O)c2cc3ccccc3s2)cc1O [Compound 17],,,less active than zileuton (1) and SAPE (2),64.7,
COc1cc(/C=C/C(=O)c2cc3ccccc3s2)ccc1O [Compound 18],,not-significantly different than zileuton (1),less active than zileuton (1) and SAPE (2),68.8,
COc1cc(/C=C/C(=O)c2cc3ccccc3s2)cc(OC)c1 [Compound 20],,not-significantly different than zileuton (1),,,
COc1cc(/C=C/C(=O)c2cc3ccccc3s2)cc(OC)c1OC [Compound 26],,inactive,,,
COc1cc(OC)c(/C=C/C(=O)c2cc3ccccc3s2)c(OC)c1 [Compound 27],,equipotent to Zileuton (1),complete loss of the 5-LO inhibition,6.9,
COc1cc(/C=C/C(=O)c2cc3ccccc3s2)cc(OC)c1O [Compound 28],,equipotent to zileuton (1); also recorded: non-significantly different than zileuton (1) and SAPE (2),three times as active as zileuton (1); also recorded: exceeding zileuton’s (1) inhibitory capacity in PMNL by more than three times,48.9,0.37
Cc1cc(/C=C/C(=O)c2cc3ccccc3s2)cc(C)c1O [Compound 29],,does not seem to be favorable for the inhibition of 5-LO products,,,
COc1cc(O)cc(OC)c1/C=C/C(=O)c1cc2ccccc2s1 [Compound 30],,less active than compound 28,,,
COc1cc(/C=C/C(=O)c2cc3ccccc3s2)cc(O)c1OC [Compound 31],,inactive; also recorded: less active than compound 28,total loss of activity; also recorded: inactive,6.6,
"NC(=O)N(O)C(=O)/C=C/c1ccccc1 [Compound 33, 1-Hydroxy-1-((E)-3-phenylacryloyl)urea]",130 to 132,inactive,,,
"COc1ccc(/C=C/C(=O)N(O)C(N)=O)cc1O [Compound 34, 1-Hydroxy-1-((E)-3-(3-hydroxy-4-methoxyphenyl)acryloyl)urea]",170 to 172,inactive,,,
COc1cc(/C=C/C(=O)N(O)C(N)=O)ccc1O [Compound 35],,inactive,,,
COc1ccc(/C=C/C(=O)N(O)C(N)=O)cc1OC [Compound 36],,inactive,,,
COc1cc(/C=C/C(=O)N(O)C(N)=O)cc(OC)c1O [Compound 37],,inactive,inactivity; also recorded: inactive,13.3,
"NC(=O)N(O)C(=O)c1ccccc1 [Compound 38, 1-Hydroxy-1-(benzoyl)urea]",127 to 129,inactive,,,
"NC(=O)N(O)C(=O)Cc1ccccc1 [Compound 39, 1-Hydroxy-1-(2-phenylacetyl)urea]",133 to 135,inactive,,,
NC(=O)N(O)C(=O)CCc1ccccc1 [Compound 40],,inactive,,,
"COc1cc(/C=C/C(=O)OCCc2ccccc2)cc(OC)c1O [SAPE (2), sinapic acid phenethyl ester, reference compound]",,,,25.4,
"O=C1O[C@H]([C@@H](O)CO)C(O)=C1O [Vitamin C, Ascorbic acid, reference compound]",,,,21.8,
"CC(c1cc2ccccc2s1)N(O)C(N)=O (stereo not shown) [Zileuton (1), zileuton]",,,,> 100,
